Values joined by “and” are separate entries in the source; they are usually repeats but may differ in a detail not shown here. Equal values may be shown once. Inconclusive results and toxic doses are left out. No stated cut-off is given here; in the data, active means T/C of 150% or more; inactive means T/C below 125%.
Test system: L1210 leukemia ip in BDF1 mice, survival T/C
Assay: NCI In Vivo Anticancer Drug Screen. Data for tumor model L1210 Leukemia (intraperitoneal) in B6D2F1 (BDF1) mice
Details: endpoint: mean survival time, higher = longer survival
How it was run: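 Transplantable tumor model; survival measured in treated vs vehicle control mice. Value = treated/control.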

[1] = dose: 100.0 mg/kg/injection, schedule: Q01DX009 (ip), vehicle: saline with Tween-80
[2] = dose: 100.0 mg/kg/injection, schedule: Q01DX001 (ip), vehicle: saline
[3] = dose: 100.0 mg/kg/injection, schedule: Q04DX003 (ip), vehicle: saline with Tween-80
[4] = dose: 200.0 mg/kg/injection, schedule: Q04DX003 (ip), vehicle: saline with Tween-80
[5] = dose: 400.0 mg/kg/injection, schedule: Q04DX003 (ip), vehicle: saline with Tween-80

Measured: T/C

ClC1=C(Cl)C2CCC1C2
inactive: dose: 25.0 mg/kg/injection, schedule: Q01DX009 (ip), vehicle: saline with Tween-80 88 % of control | dose: 50.0 mg/kg/injection, schedule: Q01DX009 (ip), vehicle: saline with Tween-80 98 % of control | dose: 100.0 mg/kg/injection, schedule: Q01DX005 (ip), vehicle: saline with Tween-80 96 % of control | [1] 94 % of control and 98 % of control | dose: 100.0 mg/kg/injection, schedule: Q04DX002 (ip), vehicle: saline with Tween-80 100 % of control | dose: 200.0 mg/kg/injection, schedule: Q01DX005 (ip), vehicle: saline with Tween-80 92 % of control | dose: 200.0 mg/kg/injection, schedule: Q04DX002 (ip), vehicle: saline with Tween-80 100 % of control | dose: 400.0 mg/kg/injection, schedule: Q01DX005 (ip), vehicle: saline with Tween-80 101 % of control

Nc1cccc(OCCCn2cc(-c3ccc(Cl)c(Cl)c3)c(N)nc2=O)c1
inactive: dose: 100.0 mg/kg/injection, schedule: Q01DX001 (ip), vehicle: Klucel (hydroxypropylcellulose) (HPC) 99 % of control | dose: 200.0 mg/kg/injection, schedule: Q01DX001 (ip), vehicle: Klucel (hydroxypropylcellulose) (HPC) 92 % of control | dose: 400.0 mg/kg/injection, schedule: Q01DX001 (ip), vehicle: Klucel (hydroxypropylcellulose) (HPC) 100 % of control

NC(C(=O)O)c1cc(Cl)co1 (stereo unspecified)
inactive: dose: 100.0 mg/kg/injection, schedule: Q04DX003 (ip), vehicle: Klucel (hydroxypropylcellulose) (HPC) 105 % of control | dose: 200.0 mg/kg/injection, schedule: Q04DX003 (ip), vehicle: Klucel (hydroxypropylcellulose) (HPC) 105 % of control | dose: 400.0 mg/kg/injection, schedule: Q04DX003 (ip), vehicle: Klucel (hydroxypropylcellulose) (HPC) 101 % of control

C=CC1(O)CCOCC1
inactive: dose: 25.0 mg/kg/injection, schedule: Q01DX001 (ip), vehicle: saline 97 % of control | dose: 50.0 mg/kg/injection, schedule: Q01DX001 (ip), vehicle: saline 97 % of control | [2] 97 % of control

Cn1c(=O)cc(C=Nc2ccc(C(=O)O)cc2)c2ccccc21
inactive: [2] 100 % of control | dose: 200.0 mg/kg/injection, schedule: Q01DX001 (ip), vehicle: saline 96 % of control | dose: 400.0 mg/kg/injection, schedule: Q01DX001 (ip), vehicle: saline 100 % of control

O=C1N(O)C23CCCC(Br)C2ON=C3C12CCCCC2 (stereo unspecified)
inactive: dose: 100.0 mg/kg/injection, schedule: Q01DX001 (ip), vehicle: saline with Tween-80 112 % of control | [3] 106 % of control | dose: 200.0 mg/kg/injection, schedule: Q01DX001 (ip), vehicle: saline with Tween-80 112 % of control | [4] 98 % of control | dose: 400.0 mg/kg/injection, schedule: Q01DX001 (ip), vehicle: saline with Tween-80 104 % of control | [5] 95 % of control

COc1cc(OC)c(N=Cc2ccc3c(c2)OCO3)cc1Cl
inactive: dose: 100.0 mg/kg/injection, schedule: Q01DX009 (ip), vehicle: Klucel (hydroxypropylcellulose) (HPC) 91 % of control | dose: 200.0 mg/kg/injection, schedule: Q01DX009 (ip), vehicle: Klucel (hydroxypropylcellulose) (HPC) 98 % of control | dose: 400.0 mg/kg/injection, schedule: Q01DX009 (ip), vehicle: Klucel (hydroxypropylcellulose) (HPC) 96 % of control

CC(C)=C(c1ccc(Br)cc1)c1ccc(Br)cc1
inactive: dose: 100.0 mg/kg/injection, schedule: Q01DX009 (ip), vehicle: acetone 93 % of control | [3] 105 % of control | [4] 97 % of control | [5] 94 % of control

O=c1oc2ccc(Cl)cc2n1CN1CCOCC1
inactive: dose: 100.0 mg/kg/injection, schedule: Q01DX001 (ip), vehicle: carboxymethylcellulose (CMC) 96 % of control | dose: 200.0 mg/kg/injection, schedule: Q01DX001 (ip), vehicle: carboxymethylcellulose (CMC) 96 % of control | dose: 400.0 mg/kg/injection, schedule: Q01DX001 (ip), vehicle: carboxymethylcellulose (CMC) 88 % of control

C1CCCC2(CCC1)OCCO2
inactive: [1] 93 % of control | [3] 113 % of control | dose: 200.0 mg/kg/injection, schedule: Q01DX009 (ip), vehicle: saline with Tween-80 102 % of control | [4] 108 % of control | dose: 400.0 mg/kg/injection, schedule: Q01DX009 (ip), vehicle: saline with Tween-80 101 % of control | [5] 94 % of control

CCOC(=O)/C=C(\C#N)CC(=O)OCC
inactive: dose: 50.0 mg/kg/injection, schedule: Q01DX005 (ip), vehicle: saline 102 % of control | dose: 100.0 mg/kg/injection, schedule: Q01DX005 (ip), vehicle: saline 102 % of control | dose: 200.0 mg/kg/injection, schedule: Q01DX005 (ip), vehicle: saline 96 % of control | dose: 400.0 mg/kg/injection, schedule: Q01DX005 (ip), vehicle: saline 94 % of control
